The values that follow come from publication PMC8959600 (eLife, 2022).

One may read the Cmax as the highest concentration seen after dosing.

For one data set, the system named is S. flexneri EG478. Description: Solid medium test at 10 µM and dose-response MIC against MDR clinical isolate. It counts as cell-based, Shigella flexneri. As to the method: (§1) The confirmed hit list was narrowed by applying the following filters: a 30% cut-off value, absence of undesirable structural features (e.g. electrophiles, peroxides, and Michael acceptors) and reduced physicochemical risk (maximum five aromatic rings and PFI <8)([Leeson and Young, 2015]). […] Briefly, the selected bacteria were cultured on the Luria-Bertani agar overnight at 37 °C (Campylobacter isolates were grown in 2.5% Laked Horse Blood cation-adjusted Mueller Hinton medium (CAMHB, Sigma Aldrich) and incubated in microaerophilic conditions (10% CO2, 5% O2 and 85% N2) at 42 °C); colonies were added to sterile PBS to form 0.5 McFarland solutions. All chemical testing was performed at an initial concentration of 10 μM. Bacterial suspensions were evenly spread on Mueller-Hinton agar by sterile cotton swabs (Medical Wire – MWE). […] Plates were incubated overnight at 37 °C. The activity of the chemical was recorded as being active (yes) or non-active (no) for each of the tested chemicals.
(§2) MICs were evaluated using the micro dilution assay in Müller Hinton broth using 1 mM chemical stock solutions, and a final concentration of 5 × 10^5 CFU/mL bacteria. Twofold serial dilutions were prepared in 96-well plates at concentration ranging from 1 μM to 7.8 nM. 100 μL bacteria were added and incubated at 37 °C overnight; 10 μl of each solution was dropped onto Luria-Bertani agar and incubated overnight at 37 °C for the detection of bacterial growth. Results were interpreted as minimal concentration necessary to inhibit growth.

A further data set relates to S. sonnei 02–1181. Described as above. It counts as cell-based, Shigella sonnei. Here is the method: as §1, §2
Data set [1] deals with clinical isolates of Shigella. Briefly: MIC by micro dilution, clinical Shigella isolates from Vietnam and Kenya. It counts as cell-based, Shigella spp. As to conditions: all clinical isolates of Shigella (82 Vietnam, 53 Kenya). From the text:
Selected compounds, including Tebipenem, were profiled against a panel of […] clinical isolates of enteric pathogens comprised of Shigella (Vietnam and Kenya; n = 135), non-typhoidal Salmonella (Vietnam; n = 117), Campylobacter (Vietnam; n = 75), and various pathogenic E. coli species (Vietnam; n = 7) ([Butcher et al., 2014]). The antimicrobial susceptibility profile of these organisms is described in Supplementary file 1.
Compound screening and dose response assays have been described previously ([Van Voorhis et al., 2016]; [Wiegand et al., 2008]). Briefly, the selected bacteria were cultured on the Luria-Bertani agar overnight at 37 °C (Campylobacter isolates were grown in 2.5% Laked Horse Blood cation-adjusted Mueller Hinton medium (CAMHB, Sigma Aldrich) and incubated in microaerophilic conditions (10% CO2, 5% O2 and 85% N2) at 42 °C); colonies were added to sterile PBS to form 0.5 McFarland solutions. […] The activity of the chemical was recorded as being active (yes) or non-active (no) for each of the tested chemicals. A non-active result was recorded when there was no evidence of bacterial inhibition, and the culture area was indistinguishable from the negative control.
MICs were evaluated using the micro dilution assay in Müller Hinton broth using 1 mM chemical stock solutions, and a final concentration of 5 × 10^5 CFU/mL bacteria. […]

Data set [2] has as its system enteric pathogens (Salmonella spp., Shigella spp., K. pneumoniae, and E. coli). Description: Checkerboard synergy assay (FIC), Gram-negative MDR clinical isolates. It counts as cell-based. As to conditions: Tebipenem/LpxC inhibitor combination, all tested enteric pathogens. Here is the method: (§3) Before initiating drug combination assays, the MIC values for both compounds were determined against Shigella (Sf2457T), Salmonella (St14028), and E. coli (EcDH5a) isolates. […] 20 μM moxifloxacin was used as negative control (100% bacterial growth inhibition) in one column and DMSO as positive control (100% bacterial growth). A total of 25 µl of 1 × 10^6 CFU/mL bacterial culture was added to each well of a 384-well plate (μClear; Greiner Bio‐One). Plates were incubated overnight at 37 °C. Next, 10 µl of resazurin were added and plates were incubated at room temperature for 3 hr. Bacterial growth inhibition was measured by fluorescence in a Envision plate reader (PerkinElmer). All assays were performed in duplicate. Combination studies with clinical isolates were performed in 96-well plates (Greiner) adding 200 μl of 1 × 10^6 CFU/mL bacterial culture and following the same checkboard titration method as described above. The range of final working concentrations of each antimicrobial was adjusted based on the MIC of each selected organism.
(§4) MICs were determined for drug A and drug B alone and in combination. […]

Data set [3] has as its system invasive and non-invasive Salmonella isolates. Description: Checkerboard synergy assay (FIC), clinical Salmonella isolates. It counts as cell-based. Particulars: in combination with azithromycin. As to the method:
as §3, §4

The conditions of data set [4]: paediatric population, Tebipenem-Pivoxil PO; ref Sato et al., 2008; cited from earlier work.

With `C[C@@H](O)[C@H]1C(=O)N2C(C(=O)O)=C(SC3CN(C4=NCCS4)C3)[C@H](C)[C@H]12` [Tebipenem], the bactericidal activity entry with S. flexneri EG478 (MDR clinical isolate S. flexneri EG478) and in the data set with S. sonnei 02–1181 was “greatest bactericidal activity” throughout. Further, the MIC range in the data set with S. flexneri EG478 (range over S. flexneri EG478 and S. sonnei 02-1181) was in the range of 0.08 to 0.15 µg/mL. Further, the “MIC values, range” value in data set [1] fell in the range of 0.04 to 0.3 µM. Moreover, in data set [2], the “interaction (FIC index)” value is listed as “indifference or partial synergy”. Also, the FIC scores in data set [3] is recorded as ~ 0.5. In addition, the AUC0-tlast in data set [4] was 16000 ng·h/mL. The Cmax in data set [4] was 7500 ng/mL.
